{"source": "paper PMC7269146", "about": "“Jingzhaotoxin-X, a gating modifier of Kv4.2 and Kv4.3 potassium channels purified from the venom of the Chinese tarantula Chilobrachys jingzhao” (The Journal of Venomous Animals and Toxins Including …, 2020)", "key": {"Kv4.2 [1]": {"biological_target": "T1, Kv4.2 (Rattus norvegicus, UniProt Q63881)", "T1 construct": "expressed in transfected cells; host or cells: HEK293t", "T1 sequence (Q63881 1-630)": "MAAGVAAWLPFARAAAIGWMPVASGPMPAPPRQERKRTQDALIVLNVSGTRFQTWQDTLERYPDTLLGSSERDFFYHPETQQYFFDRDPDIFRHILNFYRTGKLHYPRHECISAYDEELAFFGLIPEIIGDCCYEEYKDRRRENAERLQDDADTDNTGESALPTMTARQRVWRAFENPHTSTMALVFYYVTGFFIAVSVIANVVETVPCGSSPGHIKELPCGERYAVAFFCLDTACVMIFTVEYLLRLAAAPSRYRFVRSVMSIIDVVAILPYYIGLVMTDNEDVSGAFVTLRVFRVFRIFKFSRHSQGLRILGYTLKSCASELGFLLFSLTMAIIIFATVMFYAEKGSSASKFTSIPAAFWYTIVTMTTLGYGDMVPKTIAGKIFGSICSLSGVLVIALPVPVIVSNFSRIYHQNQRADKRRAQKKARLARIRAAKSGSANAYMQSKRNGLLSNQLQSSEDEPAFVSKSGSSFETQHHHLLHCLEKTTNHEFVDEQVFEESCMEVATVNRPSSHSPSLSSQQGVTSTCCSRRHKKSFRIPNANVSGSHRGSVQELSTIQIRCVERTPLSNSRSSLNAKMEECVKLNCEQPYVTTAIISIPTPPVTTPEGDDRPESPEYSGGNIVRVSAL", "test": "whole-cell patch-clamp, Kv4.2 in HEK293t cells, concentration-response and time course", "type": "cell-based", "text": "(§1) Rat cDNA genes encoding Kv4.2 (Accession: NM_031730.2) and Kv4.3 (Accession: AB003587.1) were subcloned to vector pcDNA3.1. In addition, human cDNA genes encoding Nav1.7 (Accession: DQ857292.1) and Nav1.5 (Accession: AB158469.2) were subcloned to vectors pcDNA3.1-mod and pcDNA3.1, separately. Then, Kv4.2, Kv4.3, Nav1.5 and Nav1.7 constructs were transiently transfected into the human embryonic kidney 293t (HEK293t) cells using lipofectamine 2000 (Invitrogen, USA) in accordance with manufacturer protocols. Thereafter, HEK293 cells were inoculated within Dulbecco’s modified Eagle’s medium (DMEM) containing 10% fetal bovine serum (FBS) at 5% CO2 and 37°C. The Kv4.3 channel and the Kv4.2 counterpart were then transfected in the absence of β subunit. Subsequently, cells were incubated with a DNA-lipofectamine mixture (one reporter plasmid for green fluorescence protein and channel constructs) for 4-6 h, and were washed with the fresh medium.\nAn EPC-10 patch-clamp amplifier (HEKA, Germany) was employed to record the potassium currents at the configuration of whole-cell patch-clamp under an ambient temperature of 22-25°C. The resistance was 2.0-3.0 MΩ when the recording pipette contained a full volume of internal solution (supplemented with 140 mM KCl, 10 mM HEPES, 2.5 mM MgCl2, 5 mM ATP and 11 mM EGTA). KOH was utilized to adjust the pH to 7.2, while sucrose was employed to adjust the osmolarity to 310 mOsm/L. The culture medium was replaced with an external solution containing 150 mM NaCl, 2.5 mM CaCl2, 10 mM HEPES, 2 mM MgCl2, 5 mM KCl, and 10 mM D-glucose. Similarly, sucrose and NaOH were applied to adjust the osmolarity to 330 mOsm/L and pH to 7.4. […] The series resistance was maintained at about 5 MΩ, with 65-70% compensation. Finally, the leakage currents and linear capacitance were subtracted digitally according to the P/4 protocol. […]\nOn-rates were determined by fitting time course data with a single exponential decay function (2): y = Ae^-kx + C, where x is the time, A is the normalized current value before the application of toxin (usually 1.0), and C is the final normalized current value following the block by the toxin. The on-rate (τon) was determined from the inverse of the rate constant k.\nOff-rates were determined by fitting time course data with a double exponential association function (3): y = A(1-e^-kx) + B(1-e^-fx) + C, where x is the time, A or B is the normalized current value after washout of the toxin (usually 1.0 if complete washout occurred), and C is the normalized current value before the washout of the toxin. The off-rate (τoff) was determined from the inverse of the rate constant k or f."}, "Kv4.2 [2]": {"biological_target": "T1, Kv4.2", "test": "current-voltage relationship / activation, Kv4.2", "type": "cell-based", "text": "as §1\nAn EPC-10 patch-clamp amplifier (HEKA, Germany) was employed to record the potassium currents at the configuration of whole-cell patch-clamp under an ambient temperature of 22-25°C. The resistance was 2.0-3.0 MΩ when the recording pipette contained a full volume of internal solution (supplemented with 140 mM KCl, 10 mM HEPES, 2.5 mM MgCl2, 5 mM ATP and 11 mM EGTA). KOH was utilized to adjust the pH to 7.2, while sucrose was employed to adjust the osmolarity to 310 mOsm/L. The culture medium was replaced with an external solution containing 150 mM NaCl, 2.5 mM CaCl2, 10 mM HEPES, 2 mM MgCl2, 5 mM KCl, and 10 mM D-glucose. Similarly, sucrose and NaOH were applied to adjust the osmolarity to 330 mOsm/L and pH to 7.4. […] The series resistance was maintained at about 5 MΩ, with 65-70% compensation. Finally, the leakage currents and linear capacitance were subtracted digitally according to the P/4 protocol.\nThe voltage-dependent inhibition of Kv4.2 and Kv4.3 channels by JZTX-X was determined by the depolarizing pulses to potentials in 10 mV steps from −80 to +60 mV at an interval of 10 s and the holding potential of -80 mV. […] For quantifying the voltage-depending inhibition of Kv4.2 and Kv4.3 channels, the relative current was drawn based on the membrane potential. Under control conditions, those threshold potentials to initially activate Kv4.2 and Kv4.3 currents were around -40 mV. The JZTX-X treatment at 500 nM inhibited the Kv4.2 and Kv4.3 currents, and then the I-V relation shifted to the right by about 30 mV (from -39.5 ± 1.9 mV to -11.3 ± 1.2 mV ) and 40 mV (from -39.8 ± 1.5 mV to -2.5 ± 0.9 mV ), separately (Fig. 5C and D). Additionally, the channel conductance also shifted rightward by around 30 mV (data not shown).\nFigure 5. Effects of JZTX-X on I-V relationships in Kv4.2 and Kv4.3 channels: Each cell was held at the voltage of -80 mV, and the […] current families were induced at the depolarization steps of 300 ms to different potentials (range, -80 mV to +60 mV at 10 mV increments). […] ( C ) and ( D ) represented I-V relation for Kv4.2 (C) and Kv4.3 (D) currents before (filled circles) and after 100 nM (open circles) or 500 nM (filled inverted triangles) JZTX-X treatment, respectively. ( E ) and ( F ) represented the fractional suppression on Kv4.2 (E) and Kv4.3 (F) currents after 100 nM (filled circles) and 500 nM (open circles) JZTX-X treatment, respectively. All data were expressed as mean ± S.E.M (n = 5-7 cells)."}}, "note": "Where a SMILES comes first, the peptide text is derived from it. Bridges are numbered along the chain shown (N, C = ends).", "data": [{"smiles": "CC(C)C[C@@H]1NC(=O)[C@H](CCCCN)NC(=O)[C@H](Cc2ccc(O)cc2)NC(=O)[C@@H]2CSSC[C@@H]3NC(=O)[C@H](Cc4ccc(O)cc4)NC(=O)[C@H](Cc4ccccc4)NC(=O)CNC(=O)[C@H](C)NC(=O)[C@H](CSSC[C@H](NC(=O)[C@@H](N)CC(C)C)C(=O)N[C@@H](CO)C(=O)N[C@@H](CCCNC(=N)N)C(=O)N[C@@H](CCC(=O)O)C(=O)NCC(=O)N[C@@H](CCC(=O)O)C(=O)N[C@@H](Cc4ccccc4)C(=O)N2)NC(=O)[C@H](CSSC[C@@H](C(=O)N[C@@H](Cc2ccc(O)cc2)C(=O)N[C@@H](CCCNC(=N)N)C(=O)N[C@@H](CC(N)=O)C(=O)O)NC(=O)[C@H](Cc2c[nH]cn2)NC(=O)[C@H](CC(C)C)NC(=O)[C@H](C(C)C)NC(=O)[C@H](Cc2ccccc2)NC(=O)[C@H](C)NC(=O)[C@H](CCCCN)NC3=O)NC(=O)[C@H](CCCCN)NC(=O)[C@H](CCCNC(=N)N)NC1=O", "note": "[JZTX-X, Jingzhaotoxin-X] (H-LCSREGEFCYKLRKCCAGFYCKAFVLHCYRN-OH; disulfide 2-16, 9-21, 15-28; N-terminus assumed)", "values": [{"measurement": "inhibition of Kv4.2 at resting potential without pulses", "setting": "Kv4.2 [1]; -80 mV, no pulse during first ~100 s of treatment with 200 nM or 500 nM (order Kv4.2, Kv4.3), same as with pulses at 5 s intervals, n = 5", "value": "approximately 95%"}, {"measurement": "IC50", "setting": "Kv4.2 [1]; HEK293t cells, 1 nM-10 μM, 300-ms step to +20 mV from -80 mV, 22-25°C, pH 7.4, Hill equation fit, n = 7, read-out: IC50 for Kv4.2 channels", "value": 0.068, "unit": "µM"}, {"measurement": "Hill Coefficient, Kv4.2", "setting": "Kv4.2 [1]; HEK293t cells, +20 mV from -80 mV, n = 7", "value": 0.91}, {"measurement": "reversal of Kv4.2 inhibition after rinsing", "setting": "Kv4.2 [1]; in 3 min following rinsing, high JZTX-X dose, HEK293t cells, n = 6", "value": "> 95", "unit": "%"}, {"measurement": "reduction of Kv4.2 currents over voltage range", "setting": "Kv4.2 [2]; 100 nM, -80 to +60 mV in 10 mV steps", "value": "reduced the currents of Kv4.2 channels throughout the whole voltage range"}, {"measurement": "I-V relation potential after toxin, Kv4.2", "setting": "Kv4.2 [2]; 500 nM, control -39.5 ± 1.9 mV, holding -80 mV, n = 5-7 cells", "value": "-11.3 ± 1.2", "unit": "mV"}, {"measurement": "rightward shift of I-V relation, Kv4.2", "setting": "Kv4.2 [2]; 500 nM, holding -80 mV", "value": "about 30 mV"}, {"measurement": "rightward shift of channel conductance, Kv4.2", "setting": "Kv4.2 [2]; data not shown, channel not named separately", "value": "about 30 mV"}, {"measurement": "voltage dependence of Kv4.2 inhibition", "setting": "Kv4.2 [2]; test potentials -10 to +60 mV, 100 nM and 500 nM", "value": "dependent on voltage"}]}]}
